The text below walks through data of PubChem BioAssay (NCI).

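Protocol summary: plate cells (96-well), add compound at 5 concentrations, incubate 48 h, interpolate endpoints linearly. TGI: total growth inhibition.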 Where a SMILES comes first, the peptide text is derived from it. [ ]: non-standard residue; d: D form. The star is where a group is joined. ξ: configuration not given here. NMeY = CN[C@@H](Cc1ccc(O)cc1)C(=O)O; Cbz = O=C(OCc1ccccc1)*; ξA = CC(N)C(=O)O

Test systems include IGROV1 ovarian; NCI-H23 lung; BT-549 breast; MALME-3M melanoma; OVCAR-3 ovarian; NCI-H522 lung; CAKI-1 renal; MOLT-4 leukemia; CCRF-CEM leukemia; SNB-75 CNS; HOP-62 NSCLC; PC-3 prostate; HOP-92 NSCLC; NCI-H226 lung; RXF 393 renal; TK-10 renal; HT29 colon; EKVX NSCLC; SK-MEL-2 melanoma; MDA-MB-435.
Holding throughout (test): DTP human tumour cell line panel, 48 h

One may read the TGI as the concentration giving total growth inhibition. Read a high TGI as lower sensitivity of the cells.

Consider `Cn1c2ncccc2n2c(=O)cc(O)cc12`, for which the TGI is 31.5 µM in the experiment with IGROV1 ovarian; above 100 µM with NCI-H23 lung; above 100 µM with BT-549 breast; above 100 µM in the experiment on MALME-3M melanoma; above 100 µM with OVCAR-3 ovarian; above 100 µM with NCI-H522 lung. Besides, the concentration for total growth inhibition (TGI) in the experiment on CAKI-1 renal is above 100 µM; in the experiment with MOLT-4 leukemia it was 60.1 µM; in the experiment with CCRF-CEM leukemia it was above 100 µM; in the experiment on SNB-75 CNS, above 100 µM; in the experiment on HOP-62 NSCLC it was above 100 µM; in the experiment on PC-3 prostate it was above 100 µM. Further, the TGI in the experiment with HOP-92 NSCLC was 81.4 µM; in the experiment on NCI-H226 lung, above 100 µM; in the experiment on RXF 393 renal, 75.5 µM; with TK-10 renal, above 100 µM; with HT29 colon, above 100 µM; with EKVX NSCLC it was above 100 µM. Also, the TGI with SK-MEL-2 melanoma and in the experiment on MDA-MB-435 was above 100 µM in each case.

In the case of `CC/C(Cl)=N\OC(=O)Nc1ccc(F)c(Cl)c1`, the TGI in the experiment on IGROV1 ovarian was 34.7 µM; with NCI-H23 lung, 45.7 µM; with BT-549 breast, 51.3 µM; in the experiment on MALME-3M melanoma, 9.29 µM; with OVCAR-3 ovarian it was 8.03 µM; in the experiment with NCI-H522 lung, 3.44 µM. For the same molecule, the total growth inhibition concentration (TGI) came to 9.55 µM with CAKI-1 renal; 2.11 µM in the experiment on MOLT-4 leukemia; 4.91 µM in the experiment on CCRF-CEM leukemia; 26.2 µM with SNB-75 CNS; 34.3 µM with HOP-62 NSCLC; 29.6 µM in the experiment with PC-3 prostate. The concentration for total growth inhibition (TGI) with HOP-92 NSCLC is 9.41 µM; in the experiment on NCI-H226 lung it was 51.3 µM; in the experiment with RXF 393 renal, 34.5 µM; in the experiment on TK-10 renal it was 31.3 µM; in the experiment on HT29 colon, 55.2 µM; in the experiment on EKVX NSCLC, 32.9 µM. The TGI with SK-MEL-2 melanoma was determined as 33.5 µM; in the experiment with MDA-MB-435, 39.4 µM.

With `CSC12c3cc(C)n(-c4ccc(I)cc4)c3CC(C)(C)CN1C(=O)C2Oc1ccccc1` (stereo not given), the TGI in the experiment with IGROV1 ovarian, with NCI-H23 lung, with BT-549 breast, with MALME-3M melanoma, in the experiment with OVCAR-3 ovarian and with NCI-H522 lung was above 100 µM in each case. Further, the total growth inhibition concentration (TGI) with CAKI-1 renal, with MOLT-4 leukemia, with CCRF-CEM leukemia, in the experiment with SNB-75 CNS, in the experiment on HOP-62 NSCLC and in the experiment on PC-3 prostate was above 100 µM throughout. The TGI with HOP-92 NSCLC, with NCI-H226 lung, in the experiment on RXF 393 renal, in the experiment with TK-10 renal, in the experiment with HT29 colon and in the experiment with EKVX NSCLC was above 100 µM in each case. The TGI in the experiment on SK-MEL-2 melanoma and in the experiment with MDA-MB-435 was above 100 µM each time.

`COc1ccc(C[C@@H](C(=O)N[C@@H](C)C(N)=O)N(C)C(=O)[C@@H]2CCCN2C(=O)[C@H](CC(C)C)NC(=O)C(C)NC(=O)OCc2ccccc2)cc1` (stereo not given in full) (Cbz-[ξA]LP[NMeY](Me)A-NH2): the TGI in the experiment on IGROV1 ovarian, in the experiment on NCI-H23 lung, in the experiment with BT-549 breast, with MALME-3M melanoma, in the experiment on OVCAR-3 ovarian and in the experiment on NCI-H522 lung was above 100 µM in each case. The TGI in the experiment with CAKI-1 renal, in the experiment on MOLT-4 leukemia, with CCRF-CEM leukemia, in the experiment with SNB-75 CNS, in the experiment on HOP-62 NSCLC and in the experiment with PC-3 prostate was above 100 µM in each case. For the same molecule, the concentration for total growth inhibition (TGI) with HOP-92 NSCLC, with NCI-H226 lung, in the experiment with RXF 393 renal, in the experiment on TK-10 renal, with HT29 colon and in the experiment with EKVX NSCLC was above 100 µM throughout. Further, the TGI in the experiment on SK-MEL-2 melanoma and with MDA-MB-435 was above 100 µM throughout.

As for `O=C1c2ccccc2C(=O)c2c1oc1cc(O)c(Cl)cc21`, the TGI is 31.3 µM with IGROV1 ovarian; 3.27 µM with NCI-H23 lung; 15.5 µM in the experiment on BT-549 breast; 2.51 µM in the experiment with MALME-3M melanoma; 8.52 µM in the experiment on OVCAR-3 ovarian; 26.9 µM in the experiment with NCI-H522 lung. The TGI with CAKI-1 renal is 32.5 µM; with MOLT-4 leukemia, above 62.5 µM; in the experiment with CCRF-CEM leukemia, 55.3 µM; with SNB-75 CNS, 10.4 µM; in the experiment on HOP-62 NSCLC, 21.7 µM; with PC-3 prostate it was 29.6 µM. Moreover, the concentration for total growth inhibition (TGI) in the experiment on HOP-92 NSCLC was 25.9 µM; in the experiment on NCI-H226 lung, 34.3 µM; with RXF 393 renal it was 24.5 µM; in the experiment on TK-10 renal, 38.5 µM; in the experiment on HT29 colon it was 3.89 µM; in the experiment on EKVX NSCLC, 29.6 µM. For the same molecule, the TGI in the experiment with SK-MEL-2 melanoma was determined as 7.16 µM; in the experiment on MDA-MB-435, 3.34 µM.

`CN(C)c1n2c3ccc([N+](=O)[O-])cc3n3c(N(C)C)[n+]4ccccc4c3c2c2cccc[n+]12`: the total growth inhibition concentration (TGI) in the experiment with IGROV1 ovarian, in the experiment with NCI-H23 lung, with BT-549 breast, in the experiment with MALME-3M melanoma, with OVCAR-3 ovarian and in the experiment with NCI-H522 lung was above 100 µM throughout. The total growth inhibition concentration (TGI) in the experiment with CAKI-1 renal, in the experiment on MOLT-4 leukemia, in the experiment with CCRF-CEM leukemia, in the experiment on SNB-75 CNS, in the experiment on HOP-62 NSCLC and in the experiment with PC-3 prostate was above 100 µM each time. Moreover, the concentration for total growth inhibition (TGI) with HOP-92 NSCLC, with NCI-H226 lung, with RXF 393 renal, with TK-10 renal, in the experiment with HT29 colon and in the experiment with EKVX NSCLC was above 100 µM each time. Besides, the concentration for total growth inhibition (TGI) in the experiment with SK-MEL-2 melanoma and in the experiment with MDA-MB-435 was above 100 µM throughout.

For `CCOC(=O)N1c2ccccc2N(C(=O)OCC)C1CC(=O)/C=C/c1ccccc1`, the TGI is 17.8 µM in the experiment with IGROV1 ovarian; 8.7 µM in the experiment on NCI-H23 lung; 9.84 µM in the experiment on BT-549 breast; 18.9 µM in the experiment with MALME-3M melanoma; 9.95 µM in the experiment with OVCAR-3 ovarian; 6.42 µM with NCI-H522 lung. The concentration for total growth inhibition (TGI) with CAKI-1 renal was 12.6 µM; in the experiment on MOLT-4 leukemia, 12.4 µM; in the experiment with CCRF-CEM leukemia, 4.61 µM; in the experiment on SNB-75 CNS, 9.92 µM; in the experiment on HOP-62 NSCLC, 17.6 µM; with PC-3 prostate it was 19.8 µM. Further, the concentration for total growth inhibition (TGI) with HOP-92 NSCLC was 6.16 µM; in the experiment with NCI-H226 lung, 6.04 µM; with RXF 393 renal it was 13.8 µM; in the experiment on TK-10 renal, 14.4 µM; in the experiment with HT29 colon, 8.41 µM; in the experiment with EKVX NSCLC, 8.54 µM. The TGI in the experiment on SK-MEL-2 melanoma was 7.38 µM; with MDA-MB-435, 8.11 µM.

Turning to `CC(C)(C)OC(=O)N(O)CCCn1cnc2c(NC3CC3)ncnc21`, the total growth inhibition concentration (TGI) in the experiment on IGROV1 ovarian, with NCI-H23 lung, in the experiment with BT-549 breast, with MALME-3M melanoma, in the experiment with OVCAR-3 ovarian and in the experiment on NCI-H522 lung was above 100 µM in each case. Besides, the TGI with CAKI-1 renal, in the experiment with MOLT-4 leukemia, in the experiment on CCRF-CEM leukemia, in the experiment with SNB-75 CNS, in the experiment with HOP-62 NSCLC and in the experiment on PC-3 prostate was above 100 µM in each case. The TGI with HOP-92 NSCLC, in the experiment on NCI-H226 lung, in the experiment on RXF 393 renal, in the experiment with TK-10 renal, with HT29 colon and in the experiment with EKVX NSCLC was above 100 µM in each case. Also, the TGI with SK-MEL-2 melanoma and with MDA-MB-435 was above 100 µM in each case.

As for `OC1C2CCCCN2C[C@@H](O)[C@H]1O` (stereo not given in full), the total growth inhibition concentration (TGI) in the experiment on IGROV1 ovarian, in the experiment with NCI-H23 lung, in the experiment on BT-549 breast, with MALME-3M melanoma, in the experiment on OVCAR-3 ovarian and in the experiment with NCI-H522 lung was above 100 µM each time. Besides, the TGI in the experiment with CAKI-1 renal, with MOLT-4 leukemia, in the experiment on CCRF-CEM leukemia, with SNB-75 CNS, in the experiment with HOP-62 NSCLC and with PC-3 prostate was above 100 µM in each case. The TGI in the experiment with HOP-92 NSCLC, in the experiment on NCI-H226 lung, in the experiment on RXF 393 renal, with TK-10 renal, in the experiment on HT29 colon and in the experiment with EKVX NSCLC was above 100 µM in each case. The concentration for total growth inhibition (TGI) in the experiment on SK-MEL-2 melanoma and in the experiment with MDA-MB-435 was above 100 µM in each case.
